Experimental data published in patent US4159334A, “Medicinal preparation with an antiinflammatory, analgesic and antipyretic effect” (priority 1977, dated 1979).
“Also recorded” adds a separate entry of the source.

Assays:
[1] = carrageenin and aerosol-induced inflammatory edema, acute tests in mice; format: in vivo; settings: single oral doses of 5 to 20 mg/kg
[2] = Aerosol-induced edema of paw in rats (subacute test), exudative process; format: in vivo
Text: Aerosol-induced edeima of
ry paw in rats (subacute test)

[3] = implanted sterile paper balls, granuloma weight in rats; format: in vivo; settings: 10 and 20 mg/kg
Description: It was established in tests with rats with implanted sterile paper rolled into balls that 10 and 20 mg/kg doses of the preparation reduce the weight of the granulomas by 41-60% and, consequently, produce an inhibiting effect on proliferation processes during inflammation.

[4] = test system: erythrocyte aggregation reaction; test: membrane-stabilizing effect: erythrocyte aggregation reaction caused by a gelatine solution, in vitro and in vivo; format: cell-based
[5] = tests in adrenalectomized animals; format: in vivo
[6] = tail burning test in mice; format: in vivo; settings: for reduction of the reaction to a thermal irritant: mice
Description: (§1) For example, the preparation introduced orally to mice in 10 and 20 mg/kg doses reduced the reaction of the mice to a thermal irritant by 47-75% an hour after administration. Acetylsalicylic acid in 40-300 mg/kg doses causes an effect equal to 37-87%.

[7] = comparison of analgesic ED50 values in three models (tail burning, writhing, electric current); format: in vivo; settings: acetic acid writhing (mice), electric current (rats)
Description: as §1

yeast fever in rats = format: in vivo
[8] = phenamine hyperthermia in mice; format: in vivo
Text: | Phenamine hyperthermia in

acute toxicity in cats = format: in vivo
[9] = tolerance on oral administration for 2 to 4 months; format: in vivo; settings: rats, rabbits and dogs, doses equal to 5% of LD50, 30 and 70 times the human dose
Text: These doses, which are conventionally therapeutic, and equal to 5% of the LD50 for these animals, exceeded 30 and 70 times the dose recommended for humans.

[10] = influence on organ functions and internal organs of animals; format: in vivo
[11] = set-up: species or system rabbits; settings: rabbit, in vivo
[12] = test system: cells of the amnionic membrane; format: cell-based, human
[13] = embryotoxic effects in rats; format: in vivo
Text: The preparation was examined for possible embryotoxic effects in rats.

[14] = clinical trials, therapeutic effect; format: in vivo, human patients
Text: (§2) The course of treatment lasted 3 to 4 weeks. In individual cases, the preparation was given once daily for 1 to 5 days as a symptomatic remedy (analgesic and antipyretic).
The main group of the patients given a course of treatment (203 persons), had the following diseases: rheumatism (active phase, 1st-2nd degree, according to A. I. Nesterov's classification) affecting the joints and heart (primary and recurrent rheumocarditis, heart disease of rheumatic etiology with symptoms of cardiac decompensation, of the 1-2A degree)--76 patients; polyarthritis (rheumatoid, exacerbation of chronic infectious, acute infectious-allergic, metabolic)--89 patients; arthrosis, spondylosis, exacerbation of chronic interstitial pneumonia--9 patients.
(§3) The effectiveness of the preparation was assessed by changes in complaints, clinical observation results (temperature, sensation of pain, local manifestations of the inflammatory process) and laboratory examination data (changes patients' peripheral blood picture, albumin fractions, glycoproteins and sialic acids content in blood serum, examination of stools for occult blood before and after treatment, etc.).

[15] = set-up: species or system human patients; settings: human, in vivo
Description: as §2, §3
Clinicians hold the option that tolerance to the preparation is good.

[16] = comparison of activity with acetylsalicylic acid, all experimental studies; format: in vivo; settings: Table 2
[17] = carrageenin-induced inflammatory edema, comparison with literature data; format: in vivo
[18] = set-up: species or system human patients; settings: human, in vivo; remark: listed apart in the source
Text: On the basis of these experimental data, the preparation was used clinically for the treatment of patients with chronic polyarthritis accompanied by gastrointestinal pathology, namely duodenal ulcer in the stage of remission. […] In view of the above, and also in view of the new preparation's general good tolerance, it may be used in patients with accompanying diseases of the organs of the alimentary system, which are contraindications to the use of most of the antiinflammatory remedies.

antibacterial action = settings: in contrast to brufen
[19] = in vivo
[20] = in vivo; remark: listed apart in the source
[21] = acute toxicity in mice (oral, intraperitoneal); settings: for LD50: mouse, in vivo
[22] = Aerosol-induced edema of paw in mice (acute test); format: in vivo; settings: acetylsalicylic acid = 1
Text: Aerosol-induced edema of
paw in mice (acute test)

[23] = acetic acid "writhing" in mice; format: in vivo; settings: acetylsalicylic acid = 1
[24] = painful irritation of rat's paw with electric current; format: in vivo, rats; settings: acetylsalicylic acid = 1
[25] = acute toxicity to anti-edematous action ratio (LD50/ED50) in mice; format: in vivo; settings: oral administration, acetylsalicylic acid = 1
[26] = brufen side effects, source not stated; cited from earlier work
[27] = rheumatic heart and joint disease

## OC(Nc1nccs1)C(Cl)(Cl)Cl (centres unmarked) [proposed preparation, 2,2,2-trichloro-1-(2-thiazolylamino)-ethanol]
[1]
  reduction of the symptoms of exudation: 17-62%
[2]; rats, 10 mg/kg, within 3 hours after administration
  reduction of intensity of the exudative process: reducing its intensity by half
[3]
  reduction of the weight of the granulomas: 41-60%
[4]
  membrane-stabilizing effect (erythrocyte aggregation reaction): mitigation of the erythrocyte aggregation reaction
[5]
  contribution of the adrenal system to antiinflammatory effect: andrenal system contributes to the proposed preparation's antiinflammatory effect
[6]; oral, 10 and 20 mg/kg, an hour after administration
  reduction of the reaction to a thermal irritant: 47-75%
[7]
  analgesic effect: analgesic effect was proved by three methods
Yeast fever in rats; rats with yeast fever, 100 mg/kg
  antipyretic effect compared with acetylsalicylic acid: corresponds to that produced by a 300 mg/kg dose of acetylsalicylic acid
[8]; mice, same dose (100 mg/kg) followed by phenamine
  phenamine hyperthermia: do not manifest the usual hyperthermia
Acute toxicity in cats; acute toxicity, doses in excess of 1 g/kg
  picture of intoxication: pronounced inhibition in the animals into a state similar to the prenarcotic state
Acute toxicity in cats; cats
  dose causing symptoms of intoxication and death: > 1000 mg/kg
[9]
  tolerance on long oral administration: well tolerated
[10]
  functions of the respiratory and cardiovascular systems: does not affect
[11]
  irritation of tissues: does not cause irritation
[12]
  toxic effect on cells of the amnionic membrane: nor does it have any toxic effect
[13]; 55 mg/kg, 12 days from the 9th day of pregnancy
  effect on development of the rat embryos: does not affect the development of the rat embryos
[14]; arthritis of different etiology, 89 patients
  patients with pronounced therapeutic effect, arthritis: 68%
[14]; arthrosis, spondylosis and exacerbation of chronic interstitial pneumonia
  patients with similar therapeutic effect: 65%
[14]; out of 89
  number of patients with pronounced therapeutic effect, arthritis: 61
[14]; out of the 76 patients
  number of patients with pronounced therapeutic effect, rheumatic: 61 patients
[14]; patients
  drop in temperature, time: towards the end of the first week of therapy
[14]; patients, 3 to 4 week course
  temperature after course: completely normalized
[14]; patients, 4th to 9th day from beginning of treatment
  general status, physical activity, symptoms of local inflammation: improvement of the patient's general status, increasing physical activity, abatement of symptoms of local inflammation
[14]; [27]
  ECG indices: ECG indices improved: extrasystole disappeared, symptoms of myocardial anoxia diminished
  pain in the region of the heart: abated
  paraclinical data: albumin content and gamma-fraction of the blood: a marked tendency towards a higher albumin content and the normalization of the gamma-fraction of the blood
  paraclinical data: leukocytes, ESR: disappearance of leukocytes drop of the ESR to normal
[14]; rheumatic patients
  neurological status: improvement of their neurological status was observed, manifested by diminishing asthenia and irritability
[14]; rheumatic patients, 76 patients
  patients with pronounced therapeutic effect, rheumatic: 80%
[15]
  contraindications: No contraindications
  influence on peripheral blood composition: no influence on the peripheral blood composition
  leukocyte count: diminished to norm in leukocytosis and increased in leukopenia
  tolerance: good
[16]
  activity compared with acetylsalicylic acid: higher activity than acetylsalicylic acid; also recorded: superior to acetylsalicylic acid in all the main effects
[17]
  antiinflammatory activity compared with sodium salicylate, phenylbutazone, mephenamic acid (Ponstan) and brufen: higher than that of sodium salicylate, phenylbutazone, mephenamic acid (Ponstan) and brufen
[18]
  exacerbation of the ulcerous disease: did not cause an exacerbation of the ulcerous disease
  fecal reaction to occult blood: negative in all the patients
Antibacterial action
  antibacterial action: moderately pronounced antibacterial action
[19]
  harmful effect on the gastrointestinal mucosa: no harmful effect on the gastrointestinal mucosa
[20]
  discomfort in the epigastral region: 1.6 % of cases
  drug dermatitis: 2.4%
  reversibility of side effects: pass quickly once the preparation is discontinued
[21]; from enteral coefficient
  absorption from the gastrointestinal tract compared with acetylsalicylic acid: better absorption of the preparation from the gastrointestinal tract
[21]; ip
  LD50: 708 mg/kg
[21]; po
  LD50: 1050 mg/kg

## CC(=O)Oc1ccccc1C(=O)O [acetylsalicylic acid, reference compound]
[22]
  Relative activity, antiinflammatory, aerosol-induced edema of paw in mice (acute test): 1
[2]; acetylsalicylic acid = 1
  Relative activity, antiinflammatory, aerosol-induced edema of paw in rats (subacute test): 1
[2]; rats, same test conditions, subacute
  dose producing a similar effect, relative to the proposed preparation: 30 times
[6]; acetylsalicylic acid = 1
  Relative activity, analgesic, burning tail of mice: 1
[6]; 40-300 mg/kg
  reduction of the reaction to a thermal irritant: 37-87%
[23]
  Relative activity, analgesic, acetic acid "writhing" in mice: 1
[24]
  Relative activity, analgesic, painful irritation of rat's paw with electric current: 1
Yeast fever in rats; acetylsalicylic acid = 1
  Relative activity, antipyretic, yeast fever in rats: 1
[8]; acetylsalicylic acid = 1
  Relative activity, antipyretic, phenamine hyperthermia in mice: 1
[25]
  Relative therapeutic index, acute toxicity to anti-edematous action ratio (LD50/ED50): 1
[13]; parallel comparative tests
  embryotoxic effect: produces an embryotoxic effect
[21]; mice
  enteral coefficient: -1.8
[21]; ip
  LD50: 1100 mg/kg
[21]; po
  LD50: 1910 mg/kg

## CC(C)Cc1ccc(C(C)C(=O)O)cc1 (centres unmarked) [Brufen]
[26]
  abdominal pain and headaches: 11%
  allergic symptoms: 6-8%
  dyspepsia, gastrointestinal hemorrhages, bronchospasm, thrombocytopenia, mental disorders, exacerbation of cholecystitis: 11-15%
